The results in this text go back to PubChem BioAssay (NCI).

Among the test systems are A549 NSCLC; BT-549 breast; COLO 205 colon; HCT-116 colon; HS 578T breast; MDA-N; MOLT-4 leukemia; SNB-19 CNS; UACC-257 melanoma; UACC-62 melanoma; UO-31 renal.
Common to all, as to assay: growth of human tumour cells (NCI), 48 h

Structures are written as SMILES.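 Tested at 5 concentrations; 48 h exposure; 96-well plates; endpoints linearly interpolated, else capped at highest concentration. GI50 is the concentration that inhibits growth by half. TGI: concentration producing complete growth inhibition.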

`CN(c1ccccc1Cl)S(=O)(=O)c1ccc([N+](=O)[O-])cc1`: the TGI with A549 NSCLC, in the experiment with BT-549 breast, in the experiment with COLO 205 colon, in the experiment with HCT-116 colon, in the experiment with HS 578T breast and in the experiment on MDA-N was > 100 µM in each case. Further, the TGI with MOLT-4 leukemia, in the experiment on SNB-19 CNS, in the experiment on UACC-257 melanoma, in the experiment on UACC-62 melanoma and in the experiment on UO-31 renal was > 100 µM throughout.
Consider `O=C(CNc1ccccc1[N+](=O)[O-])Nn1c(-c2ccccc2)nc2ccccc2c1=O`, for which the TGI is > 100 µM in the experiment on A549 NSCLC; 35.3 µM with BT-549 breast; 53.9 µM in the experiment with COLO 205 colon; 41.4 µM in the experiment on HCT-116 colon; > 100 µM in the experiment on HS 578T breast; 57.9 µM in the experiment on MDA-N. The TGI in the experiment on MOLT-4 leukemia was 49.8 µM; in the experiment with SNB-19 CNS, 47.8 µM; in the experiment with UACC-257 melanoma, > 10 µM; with UACC-62 melanoma, 23.4 µM; in the experiment with UO-31 renal, 33.7 µM.
With `COc1ccc2cc(CN3CCC(C4CCNCC4)CC3)ccc2c1`, the TGI with A549 NSCLC was 36.8 µM; in the experiment on BT-549 breast, 24.3 µM; in the experiment with COLO 205 colon, 3.25 µM; in the experiment on HCT-116 colon it was 3.73 µM; with HS 578T breast, > 30.5 µM; in the experiment on MDA-N it was 4.19 µM. Besides, the TGI was determined as 4.84 µM with MOLT-4 leukemia; 18.3 µM with SNB-19 CNS; 3.47 µM in the experiment on UACC-257 melanoma; 3.87 µM in the experiment with UACC-62 melanoma; 6.29 µM with UO-31 renal.
For the compound `Cc1ccc(/C=N/Nc2ccc3ccccc3n2)s1`, the TGI with A549 NSCLC is 40 µM; in the experiment with BT-549 breast, 68.7 µM; in the experiment on COLO 205 colon it was 31.1 µM; in the experiment with HCT-116 colon it was 24 µM; in the experiment with HS 578T breast, > 100 µM; in the experiment with MDA-N, 29.2 µM. Moreover, the TGI in the experiment with MOLT-4 leukemia is > 100 µM; in the experiment with SNB-19 CNS, 59 µM; in the experiment on UACC-257 melanoma it was > 100 µM; in the experiment with UACC-62 melanoma, > 100 µM; in the experiment on UO-31 renal, > 100 µM.
On to `C=C1C(=O)O[C@@H]2C=C(C)C3=CC(=O)[C@](C)(C[C@H](OC(=O)/C(C)=C\C)[C@@H]12)O3`, for which the TGI in the experiment on A549 NSCLC was found to be 10.1 µM; with BT-549 breast, 1.98 µM; with COLO 205 colon it was 2 µM; with HCT-116 colon, 0.868 µM; in the experiment with HS 578T breast, 17.7 µM; with MDA-N, 1.49 µM. Moreover, the TGI with MOLT-4 leukemia was determined as 1.5 µM; with SNB-19 CNS it was 22.4 µM; in the experiment with UACC-257 melanoma, 8.62 µM; in the experiment with UACC-62 melanoma, 2.06 µM; in the experiment with UO-31 renal it was 2.37 µM. Further, the GI50 in the experiment on MOLT-4 leukemia was 353 nM.
Turning to `c1c[nH]c(C23C4C5C6C4C2C6C53)n1` (stereo unspecified), the TGI with A549 NSCLC, with BT-549 breast, in the experiment with COLO 205 colon, with HCT-116 colon, in the experiment on HS 578T breast and with MDA-N was > 100 µM throughout. For the same compound, the TGI in the experiment with MOLT-4 leukemia, in the experiment with SNB-19 CNS, in the experiment on UACC-257 melanoma, in the experiment on UACC-62 melanoma and in the experiment on UO-31 renal was > 100 µM in each case.
For the compound `Nc1nn2c(nc(N)c3c(N)[nH]nc32)c1N=Nc1ccc(Br)cc1`, the TGI was > 100 µM in the experiment with A549 NSCLC; 15.5 µM in the experiment with BT-549 breast; > 100 µM with COLO 205 colon; > 100 µM in the experiment with HCT-116 colon; > 100 µM in the experiment with HS 578T breast; 9.88 µM in the experiment on MDA-N. Further, the TGI is > 25.9 µM in the experiment on MOLT-4 leukemia; > 92.8 µM in the experiment with SNB-19 CNS; > 100 µM in the experiment with UACC-257 melanoma; > 100 µM in the experiment on UACC-62 melanoma; > 100 µM in the experiment with UO-31 renal.
With `CN(C)CCCn1nc(N)c2nc3cc(Cl)ccc3nc21`, the TGI in the experiment on A549 NSCLC, in the experiment with BT-549 breast, in the experiment with COLO 205 colon, with HCT-116 colon, with HS 578T breast and in the experiment on MDA-N was > 100 µM each time. The TGI in the experiment on MOLT-4 leukemia is > 100 µM; in the experiment on SNB-19 CNS it was > 100 µM; in the experiment with UACC-257 melanoma it was 59.3 µM; in the experiment on UACC-62 melanoma, 45 µM; with UO-31 renal it was > 92.6 µM.
In the case of `CC1C2(C)OC(=N)C(C#N)(C(c3cccc([N+](=O)[O-])c3)O2)C1(C#N)C#N` (stereo unspecified), the TGI in the experiment with A549 NSCLC was > 100 µM; with BT-549 breast it was > 100 µM; with COLO 205 colon, 27.5 µM; in the experiment with HCT-116 colon it was 40.4 µM; in the experiment on HS 578T breast, > 100 µM; with MDA-N it was 32.4 µM. For the same compound, the TGI in the experiment with MOLT-4 leukemia is > 100 µM; in the experiment with SNB-19 CNS, > 100 µM; with UACC-257 melanoma it was 49.6 µM; in the experiment on UACC-62 melanoma, 42.7 µM; with UO-31 renal it was > 100 µM.
`CCOC(=O)C(Cc1cccn1C(=O)OC(C)(C)C)[N+](=O)[O-]` (stereo unspecified): the TGI was > 100 µM in the experiment with A549 NSCLC; > 100 µM in the experiment on BT-549 breast; 41.3 µM with COLO 205 colon; 51.3 µM in the experiment with HCT-116 colon; 75.9 µM in the experiment with HS 578T breast; 90.4 µM with MDA-N. For the same compound, the TGI is 50.4 µM with MOLT-4 leukemia; 75.5 µM in the experiment with SNB-19 CNS; 59.3 µM with UACC-257 melanoma; 42.9 µM with UACC-62 melanoma; 39.3 µM in the experiment on UO-31 renal.
